Assay results published in the supplement of paper PMC10307832.

Tests used:
Assay in all cases: relative viability (nuclei count vs DMSO), 5 days (fraction); higher = more cells survive
Carboplatin + Foretinib = compound: C1CC(C1)(C(=O)O)C(=O)O.[NH2-].[NH2-].[Pt+2] [Carboplatin] + COc1cc2c(Oc3ccc(NC(=O)C4(C(=O)Nc5ccc(F)cc5)CC4)cc3F)ccnc2cc1OCCCN1CCOCC1 [Foretinib] (partner 0.25 µM)
In short: (§1)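 Lung cancer cell lines in 1536-well plates got either a single drug or a fixed anchor-drug dose together with five library-drug doses (not always all listed) in √10 steps, by pin tool, on the day after seeding. Nuclei were counted after 5 days, and relative viability is the treated-to-vehicle ratio of nuclei counts. Values are medians of duplicate plates.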

GSK126 + Navitoclax = compound: CC[C@H](C)N1C=C(C2=C(C=C(C=C21)C3=CN=C(C=C3)N4CCNCC4)C(=O)NCC5=C(C=C(NC5=O)C)C)C [GSK126] + CC1(C)CCC(c2ccc(Cl)cc2)=C(CN2CCN(c3ccc(C(=O)NS(=O)(=O)c4ccc(N[C@H](CCN5CCOCC5)CSc5ccccc5)c(S(=O)(=O)C(F)(F)F)c4)cc3)CC2)C1 [Navitoclax] (partner 0.5 µM)
In short: as §1

GSK126 + Alpelisib = compound: CC[C@H](C)N1C=C(C2=C(C=C(C=C21)C3=CN=C(C=C3)N4CCNCC4)C(=O)NCC5=C(C=C(NC5=O)C)C)C [GSK126] + Cc1nc(NC(=O)N2CCC[C@H]2C(N)=O)sc1-c1ccnc(C(C)(C)C(F)(F)F)c1 [Alpelisib] (partner 2 µM)
In short: as §1

MLN4924 + Trametinib = compound: NS(=O)(=O)OC[C@@H]1C[C@@H](n2ccc3c(N[C@H]4CCc5ccccc54)ncnc32)C[C@@H]1O [MLN4924] + CC(=O)Nc1cccc(-n2c(=O)n(C3CC3)c(=O)c3c(Nc4ccc(I)cc4F)n(C)c(=O)c(C)c32)c1 [Trametinib] (partner 0.02 µM)
In short: as §1

Cell Line	relative viability (Carboplatin + Foretinib; first compound 0.08 µM)	relative viability (Carboplatin + Foretinib; first compound 0.253 µM)	relative viability (Carboplatin + Foretinib; first compound 0.8 µM)	relative viability (Carboplatin + Foretinib; first compound 2.53 µM)	relative viability (Carboplatin + Foretinib; first compound 8 µM)	relative viability (GSK126 + Navitoclax; first compound 0.08 µM)	relative viability (GSK126 + Navitoclax; first compound 0.253 µM)	relative viability (GSK126 + Navitoclax; first compound 0.8 µM)	relative viability (GSK126 + Navitoclax; first compound 2.53 µM)	relative viability (GSK126 + Navitoclax; first compound 8 µM)	relative viability (GSK126 + Alpelisib; first compound 0.08 µM)	relative viability (GSK126 + Alpelisib; first compound 0.253 µM)	relative viability (GSK126 + Alpelisib; first compound 0.8 µM)	relative viability (GSK126 + Alpelisib; first compound 2.53 µM)	relative viability (GSK126 + Alpelisib; first compound 8 µM)	relative viability (MLN4924 + Trametinib; first compound 0.04 µM)	relative viability (MLN4924 + Trametinib; first compound 0.1265 µM)	relative viability (MLN4924 + Trametinib; first compound 0.4 µM)	relative viability (MLN4924 + Trametinib; first compound 1.265 µM)	relative viability (MLN4924 + Trametinib; first compound 4 µM)
LK-2	1.46	1.24	1.17	1.01	1.26	0.957	0.772	0.819	0.789	0.756	1.09	0.993	0.734	1.13	0.876	0.699	0.677	0.618	0.245	0.212
LOU-NH91	0.991	0.998	0.955	0.921	0.922	0.732	0.656	0.68	0.751	0.706	0.778	0.694	0.696	0.721	0.722	0.775	0.853	0.731	0.575	0.525
LU99A	0.794	0.749	0.752	0.713	0.522	0.926	0.812	0.705	0.777	0.766	0.554	0.512	0.52	0.572	0.594	0.493	0.342	0.291	0.172	0.146
LXF-289	1.02	0.996	0.992	0.918	0.992	0.979	0.912	0.935	0.986	0.981	1.1	1.05	1.02	1.01	1.02	0.568	0.419	0.464	0.216	0.131
NCI-H23	1.02	1.01	0.886	0.846	0.826	0.847	0.837	0.895	0.996	1.03	0.74	0.628	0.565	0.779	0.76	0.403	0.391	0.326	0.201	0.167
NCI-H322M	1.12	0.943	0.895	0.861	0.77	1.19	1.35	1.11	1.22	1.17	0.819	0.836	0.817	0.78	0.737	0.662	0.735	1.03	0.452	0.389
NCI-H441	0.929	0.971	0.744	1.01	0.915	0.948	0.429	0.578	0.878	0.678	0.756	0.717	0.76	0.566	0.753	0.576	0.508	0.598	0.152	0.19
NCI-H460	0.98	1.03	0.968	0.716	0.322	1.14	1.17	1.17	1.1	1.18	0.673	0.486	0.369	0.504	0.431	0.3	0.205	0.332	0.0885	0.0366
NCI-H520	0.905	0.815	0.795	0.831	0.575	1.24	1.02	1.03	1.14	1.34	0.946	0.758	0.931	0.864	0.783	0.527	0.396	0.346	0.149	0.168
NCI-H596	0.828	1.01	0.707	0.59	0.431	0.92	0.85	0.988	1.1	0.961	0.681	0.445	0.397	0.51	0.556	0.799	0.833	0.727	0.649	0.443
NCI-H647	1.15	1.24	1.13	1.17	0.84	1.14	1.05	1.07	1.11	1.15	1.33	1.34	1.1	1.05	0.919	0.576	0.538	0.25	0.0717	0.072
NCI-H727	1.1	0.967	0.9	0.792	0.637	0.444	0.354	0.51	0.408	0.361	0.649	0.493	0.643	0.636	0.704	0.442	0.454	0.403	0.358	0.365
NCI-H838	1.16	1.06	0.934	0.931	0.669	1.15	1.18	1.09	1.1	0.978	1.12	0.982	0.866	0.845	0.809	0.438	0.331	0.172	0.0938	0.126
NCI-H1355	0.979	0.994	1.02	0.956	0.895	0.985	1.07	0.911	1.01	1.02	0.935	0.836	0.762	0.876	0.901	0.474	0.477	0.444	0.243	0.232
NCI-H1395	1.03	1.03	0.805	0.709	0.726	1.59	1.04	1.09	1.33	0.95	1.12	0.937	1.08	1.2	1.03	1.07	1.02	0.836	0.392	0.385
NCI-H1437	1.28	1.34	1.22	1.2	1.08	1.14	1.11	1.04	1.03	1.03	1.07	0.934	0.869	0.824	0.993	0.547	0.483	0.502	0.226	0.218

Cell Line	relative viability (Carboplatin + Foretinib; first compound 0.08 µM)	relative viability (Carboplatin + Foretinib; first compound 0.253 µM)	relative viability (Carboplatin + Foretinib; first compound 0.8 µM)	relative viability (Carboplatin + Foretinib; first compound 2.53 µM)	relative viability (Carboplatin + Foretinib; first compound 8 µM)	relative viability (GSK126 + Navitoclax; first compound 0.08 µM)	relative viability (GSK126 + Navitoclax; first compound 0.253 µM)	relative viability (GSK126 + Navitoclax; first compound 0.8 µM)	relative viability (GSK126 + Navitoclax; first compound 2.53 µM)	relative viability (GSK126 + Navitoclax; first compound 8 µM)	relative viability (GSK126 + Alpelisib; first compound 0.08 µM)	relative viability (GSK126 + Alpelisib; first compound 0.253 µM)	relative viability (GSK126 + Alpelisib; first compound 0.8 µM)	relative viability (GSK126 + Alpelisib; first compound 2.53 µM)	relative viability (GSK126 + Alpelisib; first compound 8 µM)	relative viability (MLN4924 + Trametinib; first compound 0.04 µM)	relative viability (MLN4924 + Trametinib; first compound 0.1265 µM)	relative viability (MLN4924 + Trametinib; first compound 0.4 µM)	relative viability (MLN4924 + Trametinib; first compound 1.265 µM)	relative viability (MLN4924 + Trametinib; first compound 4 µM)
NCI-H1651	0.791	0.827	0.822	0.795	0.413	1.19	0.943	1.07	1.07	1.2	1.13	0.946	0.933	0.938	0.936	0.799	0.853	0.81	0.512	0.185
NCI-H1666	0.977	0.918	0.823	0.832	0.607	1.08	0.982	1.02	0.833	1.12	1	0.964	1.05	0.962	1.12	0.762	0.601	0.615	0.429	0.51
NCI-H1734	0.777	0.877	0.827	0.954	0.812	0.895	0.845	0.843	0.881	0.86	0.789	0.605	0.654	0.698	0.682	0.705	0.715	0.181	0.123	0.126
NCI-H1755	1.01	0.897	0.899	0.929	0.86	1.07	0.996	0.999	0.997	0.969	0.927	0.974	0.951	0.866	0.883	0.813	0.749	0.801	0.348	0.215
NCI-H1793	0.939	0.773	0.882	0.718	0.724	0.503	0.491	0.379	0.369	0.416	0.968	0.783	0.548	0.511	0.766	0.417	0.426	0.508	0.376	0.294
NCI-H1915	1.12	1.13	1.04	1.05	0.81	0.83	0.789	0.786	0.789	0.786	1.16	1.05	1.08	1.05	1.09	0.346	0.39	0.403	0.261	0.167
NCI-H1944	0.971	0.855	0.854	0.789	0.601	1.28	1.02	1.01	0.996	1.2	0.92	0.858	0.839	0.843	0.947	0.388	0.353	0.329	0.193	0.186
NCI-H1975	1.08	1.02	0.782	0.88	0.946	1.04	1.18	0.94	0.998	0.892	0.741	0.649	0.607	0.643	0.616	0.344	0.544	0.44	0.38	0.312
NCI-H1993	1.02	0.903	0.763	0.658	0.744	0.981	0.931	0.754	1.06	0.892	0.632	0.72	0.773	0.748	0.661	0.63	0.425	0.388	0.415	0.356
NCI-H2009	1.25	1.18	1.12	1	0.767	1.23	1.14	1.19	1.1	1.16	1.26	1.16	1.17	1.13	1.14	0.342	0.322	0.238	0.136	0.105
NCI-H2023	0.859	0.926	0.897	0.695	0.282	1.04	0.984	1.04	1.09	0.995	0.635	0.641	0.588	0.677	0.571	0.549	0.495	0.328	0.0604	0.0809
NCI-H2085	1.05	0.933	1.1	0.899	0.691	1.16	1.12	1.19	1.09	1.19	1.07	0.912	1	0.906	0.995	0.486	0.509	0.575	0.559	0.293
NCI-H2087	1.18	1.14	1.15	0.957	0.757	0.992	0.917	1.14	1.02	1.14	0.993	1.21	1.26	0.919	1.05	0.23	0.217	0.291	0.129	0.0965
NCI-H2126	1.31	1.14	1.04	1.25	1.04	0.915	0.919	0.812	0.852	0.934	0.789	0.749	0.753	0.737	0.811	0.576	0.563	0.484	0.329	0.243
NCI-H2170	0.994	0.527	1.02	0.942	0.468	0.623	0.607	0.575	0.632	0.606	0.932	0.852	0.839	0.795	0.745	0.879	0.537	0.467	0.155	0.126
